# Source: ChEMBL document CHEMBL3885881, “DrugMatrix”
# Species on record: Rattus norvegicus
# Assay: DrugMatrix - Regimen: Daily Repeat
# Format: toxicity, organism-based, Sprague-Dawley
# Set-up: regimen Daily Repeat, gender Male, age 6-8 weeks
# Settings: in vivo, po, route oral GAVAGE, vehicle 100 % WATER; for ABSOLUTE BASOPHIL / ABSOLUTE EOSINOPHIL / ABSOLUTE LYMPHOCYTE / ABSOLUTE MONOCYTE / ABSOLUTE SEGMENTED NEUTROPHIL / BASOPHIL / EOSINOPHIL / ERYTHROCYTE COUNT / HEMATOCRIT / HEMOGLOBIN / LEUKOCYTE COUNT / LYMPHOCYTE / MEAN CORPUSCULAR HEMOGLOBIN / MEAN CORPUSCULAR HEMOGLOBIN CONCENTRATION / MEAN CORPUSCULAR VOLUME / MONOCYTE / NEUTROPHIL / NUCLEATED RED BLOOD CELLS / PLATELET COUNT: tissue Blood; for ALANINE AMINOTRANSFERASE / ALBUMIN / ALKALINE PHOSPHATASE / ASPARTATE AMINOTRANSFERASE / BLOOD UREA NITROGEN / CARBON DIOXIDE / CHLORIDE / CHOLESTEROL / CREATINE PHOSPHOKINASE / CREATININE / GLUCOSE / LACTATE DEHYDROGENASE / LIPASE / PHOSPHORUS / POTASSIUM / SODIUM / TOTAL BILIRUBIN / TOTAL PROTEIN / URIC ACID: tissue Plasma
# [1] = 0.3 mg/kg, 120 h, dose level Low, time 5 day
# [2] = 6 mg/kg, 72 h, dose level High, time 3 day
# [3] = 6 mg/kg, 120 h, dose level High, time 5 day
structure (smiles),measurement,setting,value
Clc1cccc(Cl)c1N=C1NCCN1 [CLONIDINE],ABSOLUTE BASOPHIL,[1],0 CELLS/uL
same,ABSOLUTE EOSINOPHIL,[1],0 CELLS/uL
same,ABSOLUTE LYMPHOCYTE,[1],12125.33 CELLS/uL
same,ABSOLUTE MONOCYTE,[1],52.33 CELLS/uL
same,ABSOLUTE SEGMENTED NEUTROPHIL,[1],1322.33 CELLS/uL
same,BASOPHIL,[1],0%
same,EOSINOPHIL,[1],0%
same,ERYTHROCYTE COUNT,[1],5.47 x10E6/uL
same,HEMATOCRIT,[1],34.07%
same,HEMOGLOBIN,[1],13.73 G/DL
same,LEUKOCYTE COUNT,[1],13.5 x10E3/uL
same,LYMPHOCYTE,[1],89.33%
same,MEAN CORPUSCULAR HEMOGLOBIN,[1],25.13 pg
same,MEAN CORPUSCULAR HEMOGLOBIN CONCENTRATION,[1],40.3 G/DL
same,MEAN CORPUSCULAR VOLUME,[1],62.3 fL
same,MONOCYTE,[1],0.33%
same,NEUTROPHIL,[1],10.33%
same,NUCLEATED RED BLOOD CELLS,[1],0 /100WBC
same,PLATELET COUNT,[1],1266.67 x10E3/uL
same,ALANINE AMINOTRANSFERASE,[1],49.67 u/L
same,ALBUMIN,[1],4.07 G/DL
same,ALKALINE PHOSPHATASE,[1],360 u/L
same,ASPARTATE AMINOTRANSFERASE,[1],94 u/L
same,BLOOD UREA NITROGEN,[1],19 mg/dL
same,CARBON DIOXIDE,[1],27 mmol/L
same,CHLORIDE,[1],100.67 MEQ/L
same,CHOLESTEROL,[1],70 mg/dL
same,CREATINE PHOSPHOKINASE,[1],371.67 u/L
same,CREATININE,[1],0.17 mg/dL
same,GLUCOSE,[1],134.33 mg/dL
same,LACTATE DEHYDROGENASE,[1],289.33 u/L
same,LIPASE,[1],9 u/L
same,PHOSPHORUS,[1],11.17 mg/dL
same,POTASSIUM,[1],6.28 MEQ/L
same,SODIUM,[1],140.53 MEQ/L
same,TOTAL BILIRUBIN,[1],0.1 mg/dL
same,TOTAL PROTEIN,[1],5.57 G/DL
same,URIC ACID,[1],1.57 mg/dL
same,ABSOLUTE BASOPHIL,[2],0 CELLS/uL
same,ABSOLUTE EOSINOPHIL,[2],0 CELLS/uL
same,ABSOLUTE LYMPHOCYTE,[2],11339 CELLS/uL
same,ABSOLUTE MONOCYTE,[2],767 CELLS/uL
same,ABSOLUTE SEGMENTED NEUTROPHIL,[2],6827.33 CELLS/uL
same,BASOPHIL,[2],0%
same,EOSINOPHIL,[2],0%
same,ERYTHROCYTE COUNT,[2],6.6 x10E6/uL
same,HEMATOCRIT,[2],40.63%
same,HEMOGLOBIN,[2],16.17 G/DL
same,LEUKOCYTE COUNT,[2],18.93 x10E3/uL
same,LYMPHOCYTE,[2],61.33%
same,MEAN CORPUSCULAR HEMOGLOBIN,[2],24.47 pg
same,MEAN CORPUSCULAR HEMOGLOBIN CONCENTRATION,[2],39.8 G/DL
same,MEAN CORPUSCULAR VOLUME,[2],61.5 fL
same,MONOCYTE,[2],4%
same,NEUTROPHIL,[2],34.67%
same,NUCLEATED RED BLOOD CELLS,[2],0 /100WBC
same,PLATELET COUNT,[2],1516.67 x10E3/uL
same,ALANINE AMINOTRANSFERASE,[2],61 u/L
same,ALBUMIN,[2],3.93 G/DL
same,ALKALINE PHOSPHATASE,[2],306.67 u/L
same,ASPARTATE AMINOTRANSFERASE,[2],172.33 u/L
same,BLOOD UREA NITROGEN,[2],58 mg/dL
same,CARBON DIOXIDE,[2],23.33 mmol/L
same,CHLORIDE,[2],96 MEQ/L
same,CHOLESTEROL,[2],67.33 mg/dL
same,CREATINE PHOSPHOKINASE,[2],987.33 u/L
same,CREATININE,[2],0.52 mg/dL
same,GLUCOSE,[2],154.33 mg/dL
same,LACTATE DEHYDROGENASE,[2],310.33 u/L
same,LIPASE,[2],8 u/L
same,PHOSPHORUS,[2],12.97 mg/dL
same,POTASSIUM,[2],6.5 MEQ/L
same,SODIUM,[2],140.77 MEQ/L
same,TOTAL BILIRUBIN,[2],0.27 mg/dL
same,TOTAL PROTEIN,[2],6.13 G/DL
same,URIC ACID,[2],2.17 mg/dL
same,ABSOLUTE BASOPHIL,[3],0 CELLS/uL
same,ABSOLUTE EOSINOPHIL,[3],46 CELLS/uL
same,ABSOLUTE LYMPHOCYTE,[3],9488.67 CELLS/uL
same,ABSOLUTE MONOCYTE,[3],118.67 CELLS/uL
same,ABSOLUTE SEGMENTED NEUTROPHIL,[3],2180 CELLS/uL
same,BASOPHIL,[3],0%
same,EOSINOPHIL,[3],0.33%
same,ERYTHROCYTE COUNT,[3],6.57 x10E6/uL
same,HEMATOCRIT,[3],38.83%
same,HEMOGLOBIN,[3],15.23 G/DL
same,LEUKOCYTE COUNT,[3],11.83 x10E3/uL
same,LYMPHOCYTE,[3],81.33%
same,MEAN CORPUSCULAR HEMOGLOBIN,[3],23.2 pg
same,MEAN CORPUSCULAR HEMOGLOBIN CONCENTRATION,[3],39.23 G/DL
same,MEAN CORPUSCULAR VOLUME,[3],59.1 fL
same,MONOCYTE,[3],1%
same,NEUTROPHIL,[3],17.33%
same,NUCLEATED RED BLOOD CELLS,[3],0 /100WBC
same,PLATELET COUNT,[3],916 x10E3/uL
same,ALANINE AMINOTRANSFERASE,[3],33.67 u/L
same,ALBUMIN,[3],4.07 G/DL
same,ALKALINE PHOSPHATASE,[3],207 u/L
same,ASPARTATE AMINOTRANSFERASE,[3],74 u/L
same,BLOOD UREA NITROGEN,[3],20.67 mg/dL
same,CARBON DIOXIDE,[3],30.67 mmol/L
same,CHLORIDE,[3],104 MEQ/L
same,CHOLESTEROL,[3],62.67 mg/dL
same,CREATINE PHOSPHOKINASE,[3],177 u/L
same,CREATININE,[3],0.25 mg/dL
same,GLUCOSE,[3],163 mg/dL
same,LACTATE DEHYDROGENASE,[3],128 u/L
same,LIPASE,[3],9 u/L
same,PHOSPHORUS,[3],8.13 mg/dL
same,POTASSIUM,[3],5.61 MEQ/L
same,SODIUM,[3],148.9 MEQ/L
same,TOTAL BILIRUBIN,[3],0.2 mg/dL
same,TOTAL PROTEIN,[3],5.9 G/DL
same,URIC ACID,[3],0.7 mg/dL
